Test results from patent publication EP1923473B1, “Bis-diglycolamides (BISDGA) as new extractants for lanthanides [Ln(III)] and actinides [An(III)] from aqueous high-level wastes” (Universidad Autónoma de Madrid, priority 2006, dated 2008).

Test: Batch extraction from simulated HLLW from the PUREX process
Type: physicochemical
Settings: 0.1 mol/L in TPH/1-octanol (90:10)
Text: The feed solution used for the extraction tests is a simulated solution of an HLLW from the PUREX process, the composition of which is shown in Table 4. Table 4: Composition of the simulated HLLW-PUREX solution used for the extraction tests
The composition of the HLLW corresponds to a burn-up of 33 GWd/tHM, the generated volume of HLLW being 5000 1/t of fuel. The feed was spiked with ^241Am, ^244Cm, ^252Cf and ^152Eu. Oxalic acid and N-(2-hydroxyethyl)ethylenediaminotriacetate (HEDTA) were also added before the extraction tests.
500 µL of the aqueous and organic phases were spiked with 10 µL of a tracer solution containing 241Am, 244Cm, 252Cf and ^152Eu, and were equilibrated for 10 minutes while they were stirred vigorously in a vortex stirrer. After the separation of the phases by centrifugation, 200 µL aliquots of each phase were taken for the determination of the concentration of ^241Am and ^152Eu using a high-purity germanium spectrometer system (EG&G Ortec). The nuclides ^241Am, ^244Cm and ^252Cf were measured by alpha spectrometry with an α-Analyst device of the company Canberra-Packard GmbH, Germany.
The concentrations of the stable elements were determined by mass spectrometry with an inductively coupled plasma source (ICP-MS) in a DRC Elan 6100 device of Perkin Elmer Sciex. The aqueous phase was measured directly after the appropriate dilution. The organic phase was analyzed after having mineralized the organic matter by microwave acid digestion and subsequent dilution.
The distribution coefficients were calculated for each element according to section C).
A 0.1 mol/L solution of compound 4 in the "TPH/1-octanol (90:10)%vol" mixture was prepared. Extraction experiments were carried out with said simulated HLLW in a pure form and also adding oxalic acid and HEDTA to it. These complexing agents have shown to be effective in the DIAMEX process for the complexing of Mo, Zr (H2C2O4) and Pd (HEDTA).
Extraction experiments were carried out with said simulated HLLW in a pure form and also adding oxalic acid and HEDTA to it.

[1] = Oxalic acid 0.2 mol/L, HEDTA 0.05 mol/L, TBP 0.5 mol/L
[2] = Oxalic acid 0.2 mol/L, HEDTA 0.05 mol/L, TBP No
[3] = Oxalic acid 0.3 mol/L, HEDTA 0.05 mol/L, TBP 0.5 mol/L
[4] = Oxalic acid 0.3 mol/L, HEDTA 0.05 mol/L, TBP No
[5] = Oxalic acid No, HEDTA No, TBP 0.5 mol/L
[6] = Oxalic acid No, HEDTA No, TBP No

## 2-Dioctylcarbamoylmethoxy-N-[3-[(2-dioctylcarbamoyl-methoxy-acetylamino)methyl]benzyl]acetamide [Compound 4]
[1]
  Distribution coefficients Ag: 0.013
  Distribution coefficients Ba: 0.0002
  Distribution coefficients Cd: 0.035
  Distribution coefficients Ce: 16
  Distribution coefficients Cf-252: 702
  Distribution coefficients Cm-244: 83
  Distribution coefficients Cs: 0.000087
  Distribution coefficients Eu: 362
  Distribution coefficients Eu-152: 430
  Distribution coefficients Gd: 91
  Distribution coefficients La: 10
  Distribution coefficients Mo: 0.065
  Distribution coefficients Nd: 52
  Distribution coefficients Pd: 0.081
  Distribution coefficients Pr: 26
  Distribution coefficients Rb: 0.0082
  Distribution coefficients Rh: 0.00068
  Distribution coefficients Ru: 0.29
  Distribution coefficients Sm: 253
  Distribution coefficients Y: 1698
  Distribution coefficients Zr: 0.062
[2]
  Distribution coefficients Ag: 0.013
  Distribution coefficients Ba: 0.00019
  Distribution coefficients Cd: 0.034
  Distribution coefficients Ce: 36
  Distribution coefficients Cf-252: 2057
  Distribution coefficients Cm-244: 262
  Distribution coefficients Cs: 0.000087
  Distribution coefficients Eu: 764
  Distribution coefficients Eu-152: 379
  Distribution coefficients Gd: 239
  Distribution coefficients La: 21
  Distribution coefficients Mo: 0.087
  Distribution coefficients Nd: 142
  Distribution coefficients Pd: 0.073
  Distribution coefficients Pr: 59
  Distribution coefficients Rb: 0.0093
  Distribution coefficients Rh: 0.00086
  Distribution coefficients Ru: 0.29
  Distribution coefficients Sm: 690
  Distribution coefficients Y: 1766
  Distribution coefficients Zr: 0.096
[3]
  Distribution coefficients Ag: 0.012
  Distribution coefficients Ba: 0.0002
  Distribution coefficients Cd: 0.036
  Distribution coefficients Ce: 21
  Distribution coefficients Cf-252: 1403
  Distribution coefficients Cm-244: 133
  Distribution coefficients Cs: 0.000087
  Distribution coefficients Eu: 446
  Distribution coefficients Eu-152: 348
  Distribution coefficients Gd: 190
  Distribution coefficients La: 13.7
  Distribution coefficients Mo: 0.094
  Distribution coefficients Nd: 68
  Distribution coefficients Pd: 0.041
  Distribution coefficients Pr: 32
  Distribution coefficients Rb: 0.0081
  Distribution coefficients Rh: 0.00067
  Distribution coefficients Ru: 0.24
  Distribution coefficients Sm: 378
  Distribution coefficients Y: 1658
  Distribution coefficients Zr: 0.022
[4]
  Distribution coefficients Ag: 0.013
  Distribution coefficients Ba: 0.0002
  Distribution coefficients Cd: 0.037
  Distribution coefficients Ce: 32
  Distribution coefficients Cf-252: 1816
  Distribution coefficients Cm-244: 286
  Distribution coefficients Cs: 0.000604
  Distribution coefficients Eu: 513
  Distribution coefficients Eu-152: 553
  Distribution coefficients Gd: 258
  Distribution coefficients La: 18
  Distribution coefficients Mo: 0.115
  Distribution coefficients Nd: 120
  Distribution coefficients Pd: 0.043
  Distribution coefficients Pr: 53
  Distribution coefficients Rb: 0.0082
  Distribution coefficients Rh: 0.00069
  Distribution coefficients Ru: 0.17
  Distribution coefficients Sm: 451
  Distribution coefficients Y: 1708
  Distribution coefficients Zr: 0.099
[5]
  Distribution coefficients Ag: 39
  Distribution coefficients Ba: 0.00019
  Distribution coefficients Cd: 0.033
  Distribution coefficients Ce: 16
  Distribution coefficients Cf-252: 692
  Distribution coefficients Cm-244: 95
  Distribution coefficients Cs: 0.000082
  Distribution coefficients Eu: 327
  Distribution coefficients Eu-152: 294
  Distribution coefficients Gd: 122
  Distribution coefficients La: 10
  Distribution coefficients Mo: 0.066
  Distribution coefficients Nd: 55
  Distribution coefficients Pd: 2.6
  Distribution coefficients Pr: 26
  Distribution coefficients Rb: 0.0080
  Distribution coefficients Rh: 0.00069
  Distribution coefficients Ru: 0.27
  Distribution coefficients Sm: 233
  Distribution coefficients Y: 1773
  Distribution coefficients Zr: 295
[6]
  Distribution coefficients Ag: 37
  Distribution coefficients Ba: 0.00019
  Distribution coefficients Cd: 0.034
  Distribution coefficients Ce: 23
  Distribution coefficients Cf-252: 2079
  Distribution coefficients Cm-244: 191
  Distribution coefficients Cs: 0.000084
  Distribution coefficients Eu: 685
  Distribution coefficients Eu-152: 293
  Distribution coefficients Gd: 166
  Distribution coefficients La: 13
  Distribution coefficients Mo: 0.069
  Distribution coefficients Nd: 94
  Distribution coefficients Pd: 2.5
  Distribution coefficients Pr: 39
  Distribution coefficients Rb: 0.0078
  Distribution coefficients Rh: 0.00066
  Distribution coefficients Ru: 0.25
  Distribution coefficients Sm: 615
  Distribution coefficients Y: 1753
  Distribution coefficients Zr: 133
